Results taken from patent US20100086513A1, “Method for Effecting Antimicrobial Activity Using Polyamine Analogues” (priority 2008, published 2010).
Values after ≈ are worked out from the molar mass of the structure shown.

What was measured:
[1] = system: E. coli K12 cells + pBR322; format: cell-based, Escherichia coli
Y. pestis KIM6+ [2] = format: cell-based, Yersinia pestis
E. coli K12 = format: cell-based, Escherichia coli
Y. pestis KIM6+ [3] = format: cell-based, Yersinia pestis; remark: listed apart in the source

## N=C(NCCCNCCCCCCCNCCCNC(=N)NC(=N)NCCC(c1ccccc1)c1ccccc1)NC(=N)NCCC(c1ccccc1)c1ccccc1 [XBI-54-13B]
[1]
  release of β-lactamase (Nitrocefin absorption at 486 nm): quickly causes a release of β-lactamase
Y. pestis KIM6+ [2]
  MIC: 1.56 mg/L (≈ 1.95 µM)

## CC[C@H](C)[C@H](NC(=O)CN)C(=O)NCC(=O)N[C@@H](C)C(=O)N[C@H](C(=O)N[C@@H](CC(C)C)C(=O)N[C@@H](CCCCN)C(=O)N[C@H](C(=O)N[C@@H](CC(C)C)C(=O)N[C@H](C(=O)N[C@H](C(=O)NCC(=O)N[C@@H](CC(C)C)C(=O)N1CCC[C@H]1C(=O)N[C@@H](C)C(=O)N[C@@H](CC(C)C)C(=O)N[C@H](C(=O)N[C@@H](CO)C(=O)N[C@@H](Cc1c[nH]c2ccccc12)C(=O)N[C@H](C(=O)N[C@@H](CCCCN)C(=O)N[C@@H](CCCNC(=N)N)C(=O)N[C@@H](CCCCN)C(=O)N[C@@H](CCCNC(=N)N)C(=O)N[C@@H](CCC(N)=O)C(=O)N[C@@H](CCC(N)=O)C(N)=O)[C@@H](C)CC)[C@@H](C)CC)[C@@H](C)O)[C@@H](C)O)C(C)C)C(C)C [mellitin]
[1]
  release of β-lactamase (Nitrocefin absorption at 486 nm): a reaction of Nitrocefin to β-lactamase occurs almost immediately

## NCCCCN [putrescine]
E. coli K12
  uptake of [14C] putrescine: ability to transport significant amounts
Y. pestis KIM6+ [3]
  uptake of [14C] putrescine: ability to transport significant amounts

## NCCCCNCCCN [spermidine]
E. coli K12
  transport of [14C] spermidine: able to transport a significant amount
Y. pestis KIM6+ [3]
  transport of [14C] spermidine: effectively unable to transport
